Results on one compound are retold here after patent US7741124B2, “Detection procedures for fibrinogen and/or fibrinogen derivatives” (priority 2003, dated 2010).

One assay has as its target T1, fibrinogen (Homo sapiens, UniProt P02671+P02675+P02679).
T1 construct: pooled patient plasma (P-Pool, n=32 single plasmas); from tissue; host or cells: pooled citrated patient plasma (P-Pool, Fbgen-Pool-Plasma)
T1 sequence (P02671 20-644 isoform P02671-2 limits assumed): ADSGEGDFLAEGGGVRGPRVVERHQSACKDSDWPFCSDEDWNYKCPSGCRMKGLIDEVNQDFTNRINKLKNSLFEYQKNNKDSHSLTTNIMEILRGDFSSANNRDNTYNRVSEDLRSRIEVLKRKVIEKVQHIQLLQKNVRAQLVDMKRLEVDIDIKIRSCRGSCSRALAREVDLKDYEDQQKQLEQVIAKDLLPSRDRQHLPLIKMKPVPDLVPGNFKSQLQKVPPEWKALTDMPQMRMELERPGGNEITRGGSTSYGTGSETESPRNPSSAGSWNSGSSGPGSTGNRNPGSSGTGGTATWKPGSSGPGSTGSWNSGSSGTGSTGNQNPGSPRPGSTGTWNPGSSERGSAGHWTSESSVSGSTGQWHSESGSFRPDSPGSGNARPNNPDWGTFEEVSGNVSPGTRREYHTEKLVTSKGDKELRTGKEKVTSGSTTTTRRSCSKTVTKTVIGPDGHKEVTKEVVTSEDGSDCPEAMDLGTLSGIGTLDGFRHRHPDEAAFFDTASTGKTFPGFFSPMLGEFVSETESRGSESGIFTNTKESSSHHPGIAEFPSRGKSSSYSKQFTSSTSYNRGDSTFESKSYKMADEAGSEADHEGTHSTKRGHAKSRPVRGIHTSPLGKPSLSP
T1 sequence (P02675 31-491): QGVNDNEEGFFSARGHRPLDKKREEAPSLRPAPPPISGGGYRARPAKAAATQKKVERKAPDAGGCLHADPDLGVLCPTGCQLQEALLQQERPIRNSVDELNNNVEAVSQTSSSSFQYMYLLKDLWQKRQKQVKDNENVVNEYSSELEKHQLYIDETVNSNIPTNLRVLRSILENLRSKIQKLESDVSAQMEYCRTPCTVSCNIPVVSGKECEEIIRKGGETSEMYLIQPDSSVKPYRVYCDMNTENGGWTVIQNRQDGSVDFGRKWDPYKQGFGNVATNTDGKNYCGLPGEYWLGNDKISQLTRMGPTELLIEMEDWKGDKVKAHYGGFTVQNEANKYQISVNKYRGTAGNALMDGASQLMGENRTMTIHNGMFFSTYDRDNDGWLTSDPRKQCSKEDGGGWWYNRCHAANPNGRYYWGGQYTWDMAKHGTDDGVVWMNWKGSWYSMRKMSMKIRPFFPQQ
T1 sequence (P02679 27-437 isoform P02679-2 limits assumed): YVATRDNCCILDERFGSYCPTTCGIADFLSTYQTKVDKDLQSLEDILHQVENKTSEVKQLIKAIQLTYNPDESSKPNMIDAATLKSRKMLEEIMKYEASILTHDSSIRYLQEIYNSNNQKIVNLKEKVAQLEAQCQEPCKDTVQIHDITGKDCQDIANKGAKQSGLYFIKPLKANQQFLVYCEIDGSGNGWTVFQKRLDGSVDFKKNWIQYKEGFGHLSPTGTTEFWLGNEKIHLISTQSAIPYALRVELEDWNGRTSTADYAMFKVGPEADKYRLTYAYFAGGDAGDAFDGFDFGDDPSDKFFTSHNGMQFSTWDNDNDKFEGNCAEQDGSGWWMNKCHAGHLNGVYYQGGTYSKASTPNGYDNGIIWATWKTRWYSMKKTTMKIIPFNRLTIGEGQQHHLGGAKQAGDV
In words: FIATA optimization: turbidity in dependence of vancomycin concentration. It is filed as biochemical. The protocol: 50 μl P-Pool or 1:2 or 1:4 diluted (in 6% BSA-PBS) P-Pool were incubated with 50 μl 0-6.8 mM vancomycin in PBS. The turbidity increase at 405 nm was determined after 1 min (RT). 25 μl Fbgen-Pool (300% of norm; 8.4 g/l) were incubated with 125 μl 0.55 mM, 1.1 mM, or 2.2 mM vancomycin in PBS for 1 min (RT). Then the turbidity increase at 405 nm was determined.

A further assay deals with T2, plasmatic fibrinogen (Homo sapiens, UniProt P02671+P02675+P02679).
T2 construct: pooled patient plasma (P-Pool, n=32 single plasmas); from tissue; host or cells: pooled citrated patient plasma (P-Pool, Fbgen-Pool-Plasma)
T2 sequence (P02671 20-644 isoform P02671-2 limits assumed): T1 sequence (P02671 20-644 isoform P02671-2 limits assumed)
T2 sequence (P02675 31-491): T1 sequence (P02675 31-491)
T2 sequence (P02679 27-437 isoform P02679-2 limits assumed): T1 sequence (P02679 27-437 isoform P02679-2 limits assumed)
It counts as biochemical. The protocol:
25 μl of 143% (4.0 g/l) P-Pool were incubated with 25 μl 0-50 mM vancomycin in PBS, 50 μl PBS, 0.1% Triton X 100® and 50 μl 850 mM KCl in H2O for 1 min (RT). The turbidity at 405 nm was determined. […] For pH-studies 5 ml P-Pool were mixed with 5 ml PBS and 0-1750 μl 1 M NaHCO3, pH 8.6.
5 ml P-Pool were incubated with 5 ml 4.4 mM vancomycin in PBS for 3 min (RT). Then the reaction mixture was centrifuged at 2500 g (4000 rpm) for 10 min. The supernatant was separated from the precipitate. The precipitate was not washed or was washed 3× with dest. H2O (resuspension, centrifugation, resuspension, . . . ). The unwashed precipitate was solubilized by addition of 500 μl 1 M NaHCO3, pH 8.6, and 4500 μl PBS; the washed precipitate was solubilized by addition of 300 μl 1 M NaHCO3 to 1700 μl in dest. H2O resuspended precipitate. 3 preparations of washed precipitate were also dried at room temperature and the dried precipitates were weighed. The solubilized precipitate and the supernatant were functionally analyzed for fibrinogen. 100 μl 1 M NaHCO3, pH 8.6 were added to 400 μl of the solubilized unwashed precipitate and this solution, the solubilized washed precipitate and the supernatant were analyzed for total protein, albumin concentration, and pseudocholinesterase activity in a Hitachi 917 analyzer, Roche, Basel, Switzerland and for vancomycin in an Integra 800 (Fluorescence Polarisation Immuno Assay); electrophoreses were performed in an agarose gel-based Hydrasis LC-Electrophoresis system (Sebia, Fulda, Germany). For control, 1 ml pooled serum was incubated with 1 ml 4.4 mM vancomycin in PBS, and the vancomycin conc. was determined.

Where [1] appears, read: after 1+1 incubation with 4.4 mM vancomycin in PBS.

SMILES strings stand for the structures.

With `CN[C@H](CC(C)C)C(=O)N[C@H]1C(=O)N[C@@H](CC(N)=O)C(=O)N[C@H]2C(=O)N[C@H]3C(=O)N[C@H](C(=O)N[C@H](C(=O)O)c4cc(O)cc(O)c4-c4cc3ccc4O)[C@H](O)c3ccc(c(Cl)c3)Oc3cc2cc(c3O[C@@H]2O[C@H](CO)[C@@H](O)[C@H](O)[C@H]2O[C@H]2C[C@](C)(N)[C@H](O)[C@H](C)O2)Oc2ccc(cc2Cl)[C@H]1O` [vancomycin], at fibrinogen (68.8 μmoles of vancomycin given to 25 μl 300% Fbgen-Pool), the “fibrinogen concentration at saturation of turbidity increase” value is recorded as “about 4 g/l”. Besides, the “own turbidity at 405 nm” value on fibrinogen (4.4 mM vancomycin in PBS, 0% fibrinogen standard in BSA) is less than 50 mA. In addition, the “fibrinogen concentration at saturation of turbidity increase” value at fibrinogen (137.5-275 μmoles of vancomycin) lay in the range of 6 to 8 g/L. The “stability of the turbidity increase” value on fibrinogen (vancomycin in plasma, RT) was “at least 10 min”. Also, on plasmatic fibrinogen (4.4 mM vancomycin), the fibrinogen precipitated is listed as 84% and the “fibrinogen remained in the plasma” value is 16%. The “fibrinogen remained of initial 4.0 g/l” value on plasmatic fibrinogen (4.4 mM vancomycin, corrected for 1+1 dilution) is 0.64 g/L. In addition, the “fibrinogen conc. in the supernatant” value at plasmatic fibrinogen (1 part plasma and 1 part 4.4 mM vancomycin in PBS) turned out to be 0.32 g/L. In addition, on plasmatic fibrinogen (25 μl 0-50 mM vancomycin, 25 μl P-Pool, 1 min RT), the “increase of turbidity of citrated plasma” value is “up to 20 fold”. For the same compound, on plasmatic fibrinogen (setting [1]), the “vancomycin found in pooled serum” value worked out at 2.1 mM and the “vancomycin found in supernatant of pooled plasma” value was 0.17 mM. At plasmatic fibrinogen (of 2.2 mM vancomycin in the reaction mixture), the “vancomycin attached to 5 μM precipitating fibrinogen” value was found to be 80 µM. Further, the vancomycin molecules/fibrinogen molecule on plasmatic fibrinogen (washed precipitate) was 16.
